{"source": "paper PMC7821949", "about": "(Biomolecules, 2020)", "origin": "cited, not measured here", "test_system": "α-Bgt"}
{"substance": "HAP: Combinatorial high-affinity peptide HAP. (WRYYESSLLPYPD)", "values": [{"measurement": "affinity for α-Bgt", "value": "2 to 4", "unit": "nM"}]}
